Measurements: patent US20140037604A1, “NUTRITIONAL COMPOSITIONS COMPRISING ALPHA-HYDROXYISOCAPROIC ACID” (NESTEC S.A., priority 2011, published 2014)
Entries after “also recorded” stand apart in the source; their conditions may differ. Where two headings read alike, the source gives them in different places. Values belong to the compound of their own block, whether it stands above or below them.

How the values were obtained:
[1] = system: intestinal mammalian target of rapamycin (mTOR); conditions: piglet stressed with LPS; cited from earlier work
[2] = system: protein synthesis in gastrocnemius, liver and heart; assay: In vivo rate of tissue protein synthesis, flooding-dose technique with [3H]-L-phenylalanine; design: species or system male Wistar rats; conditions: for In-vivo-determined tissue protein synthesis: Liver / In-vivo-determined tissue protein synthesis: Heart: freely fed rats; for In-vivo-determined tissue protein synthesis: Heart: no unit in table (text b163: nmol Phe/h/mg protein); for Immobilization (casting)-induced decrease in muscle protein synthesis: gastrocnemius, 7 days of immobilization
Description: (§1) Water was provided ad libitum.
The in vivo rate of protein synthesis in gastrocnemius, liver and heart (ventricle only) was determined using the flooding-dose technique, exactly as described (Vary T C and Lang C H, Assessing effects of alcohol consumption on protein synthesis in striated muscles. Methods Mol Biol 447: 343-355, 2008). A P-50 catheter was placed in the left carotid artery for the withdrawal of blood. Rats were injected intravenously (IV) with [^3H]-L-phenylalanine (Phe; 150 mM, 30 μCi/ml; 1 ml/100 g body weight) and blood was collected 15 min later for determining the plasma Phe concentration and radioactivity. Thereafter, tissues were rapidly excised and a portion freeze-clamped and then stored at −70° C. The rate of protein synthesis was calculated by dividing the amount of radioactivity incorporated into protein by the plasma Phe specific radioactivity. The specific radioactivity of the plasma Phe was measured by high performance liquid chromatography (HPLC) analysis of supernatant from trichloroacetic acid (TCA) extracts of plasma. In addition, samples of fresh muscle were homogenized for Western blot and analysis of selected proteins and another piece of tissue used for qRT-PCR, as described below.

[3] = Blood chemistry profile, metabolic substrates and hormone (serum); format: in vivo, male Wistar rats; conditions: for Insulin: ELISA; for Insulin / HOMA-IR (homeostatic model assessment of insulin resistance) / Triglycerides / ALT / AST / Albumin / BUN / Bilirubin, total / Calcium / Chloride / Cholesterol / Creatinine / Glucose / LDH / Phosphorous / Potassium / Protein, total / Sodium: means ± SEM; for HOMA-IR (homeostatic model assessment of insulin resistance): calculated from insulin and glucose; for ALT / AST / Albumin / BUN / Bilirubin, total / Calcium / Chloride / Cholesterol / Creatinine / Glucose / LDH / Phosphorous / Potassium / Protein, total / Sodium: serum; for Sodium: all studies combined
Description: (§2) Blood was collected from the arterial catheter while rats were anesthetized and prior to injection of [^3H]-Phe. Blood was dispensed to determine standard hematological and biochemical endpoints. For hematology analyses, 250-500 μl of blood was dispensed to tubes containing EDTA (BD No. 365974; Fisher Scientific). Hematology analyses (Heska CBC-Diff Hematology Analyzer, Loveland, Colo.) included: red and white blood cell counts, hematocrit, hemoglobin, platelets, and differential leukocyte counts. Reticulocytes were counted manually using methylene blue stain. In addition, 900 μl blood was dispensed to a tube containing 100 μl of 0.109 M sodium citrate (BD Medical No. 363083; Fisher Scientific) for measurement of prothrombin time (BBL Fibrometer System, Cockeysville, Md.). The remaining blood was dispensed to a silicone-coated collection tube (BD No. 366381; Fisher Scientific) and allowed to clot. Clotted blood samples were centrifuged in a Beckman Coulter Allegra X-12R centrifuge at 3500 rpm for 5 min at 4° C., and the serum was collected and stored. Biochemical analyses on serum was performed on a Cobas Mira Plus Chemistry Analyzer (Diamond Diagnostics, Holliston, Mass.) and included: total bilirubin, glucose, aspartate aminotransferase, alanine aminotransferase, lactate dehydrogenase, albumin, calcium, creatinine, urea, phosphate, total cholesterol, chloride, and total protein. Serum sodium and potassium were analyzed by flame photometer (IL940; Instrumentation Laboratory, Lexington, Mass.). Triglycerides and free fatty acids (FFAs) were determined colorimetrically (Abcam, Cambridge, Mass.; Wako Diagnostics, Richmond, Va., respectively). Insulin was determined by ELISA (Alpco diagnostics, Salem, N.H.). The homeostatic model assessment of insulin resistance (HOMA-IR) was calculated to provide an estimate of whole-body insulin resistance (Turner R C, Holman R R, Matthews D, Hockaday T D and Peto J. Insulin deficiency and insulin resistance interaction in diabetes: estimation of their relative contribution by feedback analysis from basal plasma insulin and glucose concentrations. Metabolism 28: 1086-1096,1979).

[4] = system: gastrocnemius of hindlimb-immobilized rats; assay: Muscle atrophy and recovery after unilateral hindlimb immobilization (gastrocnemius weight); format: in vivo, male Wistar rats; conditions: for Muscle regrowth (gastrocnemius mass) 7 days after removal of the cast: 7 days immobilization + 7 days recovery, compared to control diet; for Decrease in gastrocnemius mass by immobilization: 7 days of cast immobilization, versus contralateral uncasted limb; for Mass of previously immobilized gastrocnemius compared to contralateral uncasted muscle: recovery day 14
From the text: as §1

[5] = Organ weights of rats fed supplemented diets
From the text: Animal protocols. The experiments described herein were broadly organized into two experimental series. Both studies used male Wistar rats (Charles River Breeding Laboratories, Cambridge, Mass.) which acclimated for 1 week in a controlled environment. Rats were shipped at 350-375 g and were approximately 12 wks of age. Water and standard rat chow were provide ad libitum.
The following custom diets were commercially prepared (Dytes, Bethlehem, Pa.): control diet (AIN93M), or isocaloric, isonitrogenous diets supplemented with α-hydroxy-isocaproic acid (HICA) or leucine (Leu) (Table 1). […] Therefore, animals were provided the dietary intervention for a period of 6 days prior to hindlimb immobilization.
The foot was positioned in plantar-flexion to induce maximal atrophy of the gastrocnemius and rats received 10 ml of 0.9% warmed (37° C.) sterile saline for resuscitation. […] Consequently, the contralateral limb served as the control in all subsequent experiments. After casting, rats were housed individually and were continued to be pair-fed for a period of 7 days. Water was provided ad libitum. On day 7 after casting, rats were anesthetized with pentobarbital and the cast atraumatically and rapidly (<2 min) removed (Stryker Instruments, Kalamzoo, Mich.).

[6] = Hematological profile; format: in vivo, male Wistar rats; conditions: means ± SEM; for Hematocrit / Hemoglobin / Lymphocytes / MCH / MCV / Neutrophils / Platelets / RBC / WBC: blood; for Protime (prothrombin time): citrated blood
Description: as §2

[7] = rat, in vivo
[8] = means ± SEM, all studies combined, no unit in table
[9] = means ± SEM, all studies combined
[10] = supplemented diet, means ± SEM, all studies combined

SMILES: O=C(O)CCC(=O)C(=O)O [AKG, α-ketoglutarate]
Crypt depth [1]: reduced crypt depth
Phosphorylation of intestinal mTOR [1]: increased phosphorylation
Villous height [1]: increased villous height

Insulin [3]: 1.90 ± 0.15 a ng/ml
HOMA-IR (homeostatic model assessment of insulin resistance) [3]: 27.1 ± 3.2 a
Triglycerides [3]: 609 ± 51 µmol/L
Markers of renal function (creatinine and BUN) compared to control values ([3]; rat, in vivo): generally unaffected
Serum insulin concentration compared to control rats ([3]; rat, in vivo): did not differ
Albumin [3]: 3.31 ± 0.04 g/dL
BUN [3]: 16.2 ± 0.6a mg/dL
Bilirubin, total [3]: 0.5 ± 0.04 mg/dL
Calcium [3]: 9.5 ± 0.1 mg/dL
Chloride [3]: 101 ± 1 mmol/L
Cholesterol [3]: 62 ± 3 mg/dL
Creatinine [3]: 0.3 ± 0.02 mg/dL
Glucose [3]: 223 ± 11 mg/dL
LDH [3]: 232 ± 23 U/L
Phosphorous [3]: 5.8 ± 0.2a mg/dL
Potassium [3]: 4.9 ± 0.1a mmol/L
Protein, total [3]: 5.0 ± 0.1 g/dL
Sodium [3]: 141 ± 1 mmol/L
Deleterious effects on whole-body and tissue-specific metabolic and hematological parameters ([3]; supplementation for up to 3 wks): no apparent deleterious effects
Organ weight: Liver ([5]; diet with α-HICA 50.4 g/kg or leucine 50 g/kg, means ± SEM, data combined from all studies): 12.00 ± 0.35 g
Kidney weight compared between diets ([5]; rat, in vivo): did not differ
Organ weight: Adrenal [5, 10]: 403 ± 16 mg
Organ weight: Kidney [5, 10]: 1.22 ± 0.03 g
Organ weight: Spleen [5, 10]: 960 ± 37 mg
Organ weight: Testes [5, 10]: 1.82 ± 0.03 g
Organ weight: Heart ([5]; ventricle only, supplemented diet, means ± SEM, all studies combined): 1.13 ± 0.02 g
Hematocrit [6]: 40 ± 1%
Hemoglobin [6]: 15.2 ± 0.5 g/dL
Lymphocytes [6]: 70 ± 2%
MCH [6]: 17.9 ± 0.1 pg
MCV [6]: 47 ± 1 fL
Neutrophils [6]: 24 ± 2%
Platelets [6]: 1207 ± 60 103/μl
RBC [6]: 8.49 ± 0.31 106/μl
WBC [6]: 2.5 ± 0.2 103/μl
Protime (prothrombin time) [6]: 19 ± 1 s
SMILES: CC(C)CC(O)C(=O)O (stereo not drawn) [HICA, α-hydroxy-isocaproic acid]
Increment in protein synthesis in the previously immobilized muscle ([2]; after a 7-day recovery period, not statistically significant versus control-fed rats): 0.77±0.17 nmol Phe/h/mg protein
Protein synthesis in the previously immobilized muscle compared to contralateral uncasted muscle ([2]; day 14 of recovery): still increased
Increment in muscle protein synthesis compared to other groups ([2]; day 14 of recovery, failed to achieve statistical significance): tended to be increased
In-vivo-determined tissue protein synthesis: Liver [2, 8]: 24.41 ± 0.90
In-vivo-determined tissue protein synthesis: Heart [2, 9]: 2.76 ± 0.11
Immobilization (casting)-induced decrease in muscle protein synthesis [2]: no immobilization-induced decrease
Immobilization (casting)-induced decrease in muscle protein synthesis ([2]; listed as αHICA): prevented the casting-induced decrease in muscle protein synthesis
In-vivo-determined tissue protein synthesis: GAstrocnemius (control) ([2]; uncasted control muscle, means ± SEM, all studies combined, no unit in table): 1.26 ± 0.04
Basal rate of protein synthesis in uncasted muscle, lower than control-fed rats ([2]; uncasted gastrocnemius): 10%
ALT [3]: 24 ± 1 U/L
AST [3]: 74 ± 4 U/L
Muscle regrowth (gastrocnemius mass) 7 days after removal of the cast [4]: not altered
Decrease in gastrocnemius mass by immobilization [4]: 0.61 ± 0.09 g
Mass of previously immobilized gastrocnemius compared to contralateral uncasted muscle [4]: did not differ; also recorded: complete recovery of mass
Prevention or amelioration of the reduction in muscle mass produced by disuse ([4]; unilateral hindlimb immobilization): failed to prevent or ameliorate the accompanying reduction in muscle mass

Kidney weight compared between diets [7]: did not differ
Insulin [3]: 3.64 ± 0.32 c ng/ml
HOMA-IR (homeostatic model assessment of insulin resistance) [3]: 47.7 ± 4.6b
Triglycerides [3]: 667 ± 52 µmol/L
HOMA-IR compared to control rats or those fed a HICA-containing diet ([3]; rat, in vivo): significantly greater
Markers of renal function (creatinine and BUN) compared to control values ([3]; rat, in vivo): generally unaffected
Serum phosphorus concentration, elevation compared to control values ([3]; rat, in vivo): 18%
Serum potassium concentration compared to control- or HICA-fed rats ([3]; rat, in vivo): lower
Albumin [3]: 3.42 ± 0.03 g/dL
BUN [3]: 16.2 ± 0.5a mg/dL
Bilirubin, total [3]: 0.3 ± 0.02 mg/dL
Calcium [3]: 9.6 ± 0.1 mg/dL
Chloride [3]: 100 ± 1 mmol/L
Cholesterol [3]: 63 ± 4 mg/dL
Creatinine [3]: 0.3 ± 0.01 mg/dL
Glucose [3]: 214 ± 8 mg/dL
LDH [3]: 169 ± 21 U/L
Phosphorous [3]: 7.0 ± 0.2b mg/dL
Potassium [3]: 4.1 ± 0.1b mmol/L
Protein, total [3]: 5.0 ± 0.1 g/dL
Sodium [3]: 140 ± 1 mmol/L
Hematocrit [6]: 41 ± 1%
Hemoglobin [6]: 15.7 ± 0.3 g/dL
Lymphocytes [6]: 73 ± 3%
MCH [6]: 17.9 ± 0.2 pg
MCV [6]: 47 ± 1 fL
Neutrophils [6]: 23 ± 3%
Platelets [6]: 1206 ± 56 103/μl
RBC [6]: 8.98 ± 0.28 106/μl
WBC [6]: 2.7 ± 0.2 103/μl
Protime (prothrombin time) [6]: 18 ± 1 s
SMILES: CC(C)C[C@H](N)C(=O)O [Leucine, leucine]
Protein synthesis in the previously immobilized muscle compared to contralateral uncasted muscle ([2]; day 14 of recovery, listed as Leu): not different from the uncasted muscle; also recorded: returned to basal values
In-vivo-determined tissue protein synthesis: Liver [2, 8]: 22.51 ± 0.88
In-vivo-determined tissue protein synthesis: Heart [2, 9]: 2.93 ± 0.11
Immobilization (casting)-induced decrease in muscle protein synthesis ([2]; listed as Leu): decreased protein synthesis to the same extent; also recorded: failed to prevent the casting-induced decrease in protein synthesis
Protein synthesis in the uncasted muscle compared to control-fed rats ([2]; uncasted gastrocnemius): did not differ
ALT [3]: 24 ± 1 U/L
AST [3]: 68 ± 4 U/L
Muscle regrowth (gastrocnemius mass) 7 days after removal of the cast [4]: not altered
Decrease in gastrocnemius mass by immobilization [4]: 0.57 ± 0.08 g
Mass of previously immobilized gastrocnemius compared to contralateral uncasted muscle ([4]; listed as Leu): a reduction in mass of the previously immobilized muscle was still detected; also recorded: partial recovery of gastrocnemius mass
